Values of other authors, collected in US12370144B2, “Centanafadine pharmaceutical formulations, and methods of making and using same” (OTSUKA PHARMACEUTICAL CO., LTD., priority 2021, dated 2025).

Tests used:
[1] = target: norepinephrine reuptake transporter (NET) (Homo sapiens, UniProt P23975); conditions: triple reuptake inhibitor, rank of potency
[2] = target: dopamine reuptake transporter (DAT) (Homo sapiens, UniProt Q01959); conditions: fraction of the potency towards NET
[3] = target: serotonin reuptake transporter (SERT) (Homo sapiens, UniProt P31645); conditions: fraction of the potency towards NET
[4] = not told

dopamine reuptake transporter (DAT), sequence (Q01959 whole entry, species assumed): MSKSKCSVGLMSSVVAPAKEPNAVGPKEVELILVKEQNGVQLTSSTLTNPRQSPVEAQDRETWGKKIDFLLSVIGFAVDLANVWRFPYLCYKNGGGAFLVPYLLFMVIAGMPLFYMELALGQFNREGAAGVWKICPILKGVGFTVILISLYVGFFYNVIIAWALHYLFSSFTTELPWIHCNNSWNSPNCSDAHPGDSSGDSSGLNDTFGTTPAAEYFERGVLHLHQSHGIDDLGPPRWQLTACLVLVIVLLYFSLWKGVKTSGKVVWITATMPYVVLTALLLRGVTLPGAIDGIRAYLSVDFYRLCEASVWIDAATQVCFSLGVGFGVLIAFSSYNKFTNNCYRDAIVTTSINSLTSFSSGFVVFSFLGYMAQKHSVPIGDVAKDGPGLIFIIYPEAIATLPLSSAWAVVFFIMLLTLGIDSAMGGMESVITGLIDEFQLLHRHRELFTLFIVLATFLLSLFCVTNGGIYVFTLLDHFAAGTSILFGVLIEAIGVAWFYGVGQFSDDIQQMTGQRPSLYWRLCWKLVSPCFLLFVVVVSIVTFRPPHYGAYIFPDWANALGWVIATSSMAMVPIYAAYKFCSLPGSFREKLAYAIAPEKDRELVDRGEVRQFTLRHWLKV
serotonin reuptake transporter (SERT), sequence (P31645 whole entry, species assumed): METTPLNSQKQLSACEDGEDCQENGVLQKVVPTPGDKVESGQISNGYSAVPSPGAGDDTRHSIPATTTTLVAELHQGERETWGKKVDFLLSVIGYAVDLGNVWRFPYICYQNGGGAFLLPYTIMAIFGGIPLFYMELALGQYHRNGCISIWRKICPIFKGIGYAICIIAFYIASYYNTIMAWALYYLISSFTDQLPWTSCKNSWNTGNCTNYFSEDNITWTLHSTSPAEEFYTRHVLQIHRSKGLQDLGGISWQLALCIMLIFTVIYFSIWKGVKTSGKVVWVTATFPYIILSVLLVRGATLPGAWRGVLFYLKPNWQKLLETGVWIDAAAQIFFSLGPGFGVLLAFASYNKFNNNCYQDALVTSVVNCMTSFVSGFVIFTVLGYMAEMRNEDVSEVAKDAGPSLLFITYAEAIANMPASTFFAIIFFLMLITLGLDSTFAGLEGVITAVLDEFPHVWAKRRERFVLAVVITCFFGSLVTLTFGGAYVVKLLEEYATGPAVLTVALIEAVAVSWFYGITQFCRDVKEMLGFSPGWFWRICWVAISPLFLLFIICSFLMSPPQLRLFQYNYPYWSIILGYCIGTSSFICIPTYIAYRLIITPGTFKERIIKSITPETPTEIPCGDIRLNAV
norepinephrine reuptake transporter (NET), sequence (P23975 whole entry): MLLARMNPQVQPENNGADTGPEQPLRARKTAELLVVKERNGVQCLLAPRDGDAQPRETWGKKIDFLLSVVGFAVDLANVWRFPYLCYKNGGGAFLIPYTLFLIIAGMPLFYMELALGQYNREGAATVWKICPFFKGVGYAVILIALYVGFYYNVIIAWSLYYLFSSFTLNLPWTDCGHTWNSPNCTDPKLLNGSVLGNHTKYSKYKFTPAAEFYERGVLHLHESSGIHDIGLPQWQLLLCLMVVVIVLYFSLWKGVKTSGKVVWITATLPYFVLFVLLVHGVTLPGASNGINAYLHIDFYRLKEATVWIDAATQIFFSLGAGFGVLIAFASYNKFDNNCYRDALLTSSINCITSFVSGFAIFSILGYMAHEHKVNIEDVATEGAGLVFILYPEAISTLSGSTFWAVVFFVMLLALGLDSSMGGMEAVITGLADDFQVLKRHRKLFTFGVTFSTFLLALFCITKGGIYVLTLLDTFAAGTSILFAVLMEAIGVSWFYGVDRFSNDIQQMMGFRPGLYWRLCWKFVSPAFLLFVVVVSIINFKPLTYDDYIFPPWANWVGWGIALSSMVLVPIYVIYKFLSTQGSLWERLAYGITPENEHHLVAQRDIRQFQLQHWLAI

## c1ccc2cc([C@]34CNC[C@H]3C4)ccc2c1 [centanafadine, (1R,5S)-1-(naphthalen-2-yl)-3-azabicyclo[3.1.0]hexane]
[1]
  Potency towards NET: most potency
[2]
  Potency towards DAT relative to NET: one-sixth
[3]
  Potency towards SERT relative to NET: one-fourteenth
[4]
  Permeability: highly permeable
